Legend:
[1] = target: T1, RFS-1/RIP-1 (Caenorhabditis elegans, UniProt P34348); experiment: stopped-flow Cy3 fluorescence, binding to RAD-51-ssDNA filament […]' end; assay type: biochemical; settings: 25°C; 50 nM RFS-1/RIP-1 pre-incubated with ADP; 1 μM RAD-51, 15 nM 5'-Cy3-43-mer
T1 sequence (P34348 1-245): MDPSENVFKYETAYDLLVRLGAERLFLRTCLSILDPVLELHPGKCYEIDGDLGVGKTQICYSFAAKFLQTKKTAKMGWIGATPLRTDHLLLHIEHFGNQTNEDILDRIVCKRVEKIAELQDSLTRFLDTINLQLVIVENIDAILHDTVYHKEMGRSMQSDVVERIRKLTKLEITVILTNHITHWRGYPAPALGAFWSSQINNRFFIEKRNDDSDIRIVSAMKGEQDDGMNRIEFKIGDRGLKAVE
T1 sequence (Q21621 1-209 partner): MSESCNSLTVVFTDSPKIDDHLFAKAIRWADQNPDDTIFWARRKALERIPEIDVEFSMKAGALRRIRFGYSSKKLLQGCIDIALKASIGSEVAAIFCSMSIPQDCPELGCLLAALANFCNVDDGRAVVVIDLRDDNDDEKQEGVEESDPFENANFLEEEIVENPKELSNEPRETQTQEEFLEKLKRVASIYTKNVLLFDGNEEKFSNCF

[2] = target: T2, RAD-51 (Caenorhabditis elegans, UniProt G5EGG8); experiment: fluorescence titration, fixed TNP-ATP concentration; assay type: binding; settings: 25°C; fluorescent ATP analog; labelled compound
T2 sequence (G5EGG8 1-357): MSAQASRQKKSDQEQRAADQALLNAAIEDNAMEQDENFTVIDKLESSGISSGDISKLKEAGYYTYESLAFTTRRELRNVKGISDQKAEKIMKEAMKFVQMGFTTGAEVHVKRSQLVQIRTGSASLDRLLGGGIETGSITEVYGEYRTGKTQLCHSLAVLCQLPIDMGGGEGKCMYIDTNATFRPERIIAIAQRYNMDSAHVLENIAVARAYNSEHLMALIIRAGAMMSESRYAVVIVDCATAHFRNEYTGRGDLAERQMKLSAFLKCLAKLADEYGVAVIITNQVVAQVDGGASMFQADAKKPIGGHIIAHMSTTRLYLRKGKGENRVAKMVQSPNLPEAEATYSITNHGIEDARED

Row | Compound | Δ Cy3 fluorescence [1] | Kd [2] [µM]
1 | Nc1ncnc2c1ncn2[C@@H]1O[C@H](COP(=O)(O)OP(=O)(O)O)[C@@H](O)[C@H]1O [ADP] | RFS-1/RIP-1 was pre-incubated with ADP (Figures 5C and 5D) | 
2 | TNP-ATP |  | ~3.5

From PMC5145814 (Molecular Cell, 2016)
